Data from ChEMBL document CHEMBL4004838, “Design and synthesis of novel phenyl -1, 4-beta-carboline-hybrid molecules as potential anticancer agents” (Eur J Med Chem, 2017).

What was measured:
Type in all cases: functional
[1] = system: K562; assay: Growth inhibition of human K562 cells assessed as cell growth at 10^-5 M incubated for 48 hrs by sulforhodamine B assay relative to control; details: K562, 48 h, read-out: Activity
[2] = system: MCF7; assay: Growth inhibition of human MCF7 cells assessed as cell growth at 10^-5 M incubated for 48 hrs by sulforhodamine B assay relative to control; details: MCF7, 48 h, read-out: Activity
[3] = system: SK-MEL-2; assay: Growth inhibition of human SK-MEL-2 cells assessed as cell growth at 10^-5 M incubated for 48 hrs by sulforhodamine B assay relative to control; details: SK-MEL-2, 48 h, read-out: Activity
[4] = system: LOX IMVI; assay: Growth inhibition of human LOXIMVI cells assessed as cell growth at 10^-5 M incubated for 48 hrs by sulforhodamine B assay relative to control; details: read-out: Activity
[5] = system: KM12; assay: Growth inhibition of human KM12 cells assessed as cell growth at 10^-5 M incubated for 48 hrs by sulforhodamine B assay relative to control; details: KM12, 48 h, read-out: Activity
[6] = system: 786-0; assay: Growth inhibition of human 786-0 cells assessed as cell growth at 10^-5 M incubated for 48 hrs by sulforhodamine B assay relative to control; details: 786-0, 48 h, read-out: Activity
[7] = system: HCC 2998; assay: Growth inhibition of human HCC2998 cells assessed as cell growth at 10^-5 M incubated for 48 hrs by sulforhodamine B assay relative to control; details: HCC 2998, 48 h, read-out: Activity
[8] = system: SF-268; assay: Growth inhibition of human SF268 cells assessed as cell growth at 10^-5 M incubated for 48 hrs by sulforhodamine B assay relative to control; details: SF-268, 48 h, read-out: Activity
[9] = system: OVCAR-4; assay: Growth inhibition of human OVCAR4 cells assessed as cell growth at 10^-5 M incubated for 48 hrs by sulforhodamine B assay relative to control; details: OVCAR-4, 48 h, read-out: Activity
[10] = system: HL-60(TB); assay: Growth inhibition of human HL-60(TB) cells assessed as cell growth at 10^-5 M incubated for 48 hrs by sulforhodamine B assay relative to control; details: HL-60, 48 h, read-out: Activity
[11] = system: CCRF-CEM; assay: Growth inhibition of human CCRF-CEM cells assessed as cell growth at 10^-5 M incubated for 48 hrs by sulforhodamine B assay relative to control; details: read-out: Activity
[12] = system: UO-31; assay: Growth inhibition of human UO31 cells assessed as cell growth at 10^-5 M incubated for 48 hrs by sulforhodamine B assay relative to control; details: UO-31, 48 h, read-out: Activity
[13] = system: SK-MEL-28; assay: Growth inhibition of human SK-MEL-28 cells assessed as cell growth at 10^-5 M incubated for 48 hrs by sulforhodamine B assay relative to control; details: SK-MEL-28, 48 h, read-out: Activity
[14] = system: SF-295; assay: Growth inhibition of human SF295 cells assessed as cell growth at 10^-5 M incubated for 48 hrs by sulforhodamine B assay relative to control; details: SF-295, 48 h, read-out: Activity
[15] = system: Hs-578T; assay: Growth inhibition of human Hs 578T cells assessed as cell growth at 10^-5 M incubated for 48 hrs by sulforhodamine B assay relative to control; details: read-out: Activity
[16] = system: A549; assay: Growth inhibition of human A549/ATCC cells assessed as cell growth at 10^-5 M incubated for 48 hrs by sulforhodamine B assay relative to control; details: A549, 48 h, read-out: Activity
[17] = system: NCI-H522; assay: Growth inhibition of human NCI-H522 cells assessed as cell growth at 10^-5 M incubated for 48 hrs by sulforhodamine B assay relative to control; details: NCI-H522, 48 h, read-out: Activity
[18] = system: TK-10; assay: Growth inhibition of human TK10 cells assessed as cell growth at 10^-5 M incubated for 48 hrs by sulforhodamine B assay relative to control; details: TK-10, 48 h, read-out: Activity
[19] = system: PC-3; assay: Growth inhibition of human PC3 cells assessed as cell growth at 10^-5 M incubated for 48 hrs by sulforhodamine B assay relative to control; details: PC-3, 48 h, read-out: Activity
[20] = system: SR; assay: Growth inhibition of human SR cells assessed as cell growth at 10^-5 M incubated for 48 hrs by sulforhodamine B assay relative to control; details: read-out: Activity
[21] = system: SF-539; assay: Growth inhibition of human SF539 cells assessed as cell growth at 10^-5 M incubated for 48 hrs by sulforhodamine B assay relative to control; details: SF-539, 48 h, read-out: Activity
[22] = system: HOP-62; assay: Growth inhibition of human HOP62 cells assessed as cell growth at 10^-5 M incubated for 48 hrs by sulforhodamine B assay relative to control; details: HOP-62, 48 h, read-out: Activity
[23] = system: MDA-MB-435; assay: Growth inhibition of human MDA-MB-435 cells assessed as cell growth at 10^-5 M incubated for 48 hrs by sulforhodamine B assay relative to control; details: MDA-MB-435, 48 h, read-out: Activity
[24] = system: HCT-116; assay: Growth inhibition of human HCT116 cells assessed as cell growth at 10^-5 M incubated for 48 hrs by sulforhodamine B assay relative to control; details: HCT-116, 48 h, read-out: Activity
[25] = system: M14; assay: Growth inhibition of human M14 cells assessed as cell growth at 10^-5 M incubated for 48 hrs by sulforhodamine B assay relative to control; details: M14, 48 h, read-out: Activity
[26] = system: COLO 205; assay: Growth inhibition of human COLO205 cells assessed as cell growth at 10^-5 M incubated for 48 hrs by sulforhodamine B assay relative to control; details: COLO 205, 48 h, read-out: Activity
[27] = system: MDA-MB-231; assay: Growth inhibition of human MDA-MB-231 cells assessed as cell growth at 10^-5 M incubated for 48 hrs by sulforhodamine B assay relative to control; details: MDA-MB-231, 48 h, read-out: Activity
[28] = system: A498; assay: Growth inhibition of human A498 cells assessed as cell growth at 10^-5 M incubated for 48 hrs by sulforhodamine B assay relative to control; details: A498, 48 h, read-out: Activity
[29] = system: NCI-H322M; assay: Growth inhibition of human NCI-H322M cells assessed as cell growth at 10^-5 M incubated for 48 hrs by sulforhodamine B assay relative to control; details: read-out: Activity
[30] = system: BT-549; assay: Growth inhibition of human BT549 cells assessed as cell growth at 10^-5 M incubated for 48 hrs by sulforhodamine B assay relative to control; details: BT-549, 48 h, read-out: Activity
[31] = system: HT-29; assay: Growth inhibition of human HT-29 cells assessed as cell growth at 10^-5 M incubated for 48 hrs by sulforhodamine B assay relative to control; details: HT-29, 48 h, read-out: Activity
[32] = system: SNB-75; assay: Growth inhibition of human SNB75 cells assessed as cell growth at 10^-5 M incubated for 48 hrs by sulforhodamine B assay relative to control; details: SNB-75, 48 h, read-out: Activity
[33] = system: SN12C; assay: Growth inhibition of human SN12C cells assessed as cell growth at 10^-5 M incubated for 48 hrs by sulforhodamine B assay relative to control; details: read-out: Activity

Compound | growth at 10 µM [1] [%] | growth at 10 µM [2] [%] | growth at 10 µM [3] [%] | growth at 10 µM [4] [%] | growth at 10 µM [5] [%] | growth at 10 µM [6] [%] | growth at 10 µM [7] [%] | growth at 10 µM [8] [%] | growth at 10 µM [9] [%] | growth at 10 µM [10] [%] | growth at 10 µM [11] [%] | growth at 10 µM [12] [%] | growth at 10 µM [13] [%] | growth at 10 µM [16] [%] | growth at 10 µM [19] [%] | growth at 10 µM [22] [%] | growth at 10 µM [24] [%] | growth at 10 µM [28] [%] | growth at 10 µM [30] [%] | growth at 10 µM [33] [%] | also measured
c1ccc2c(c1)[nH]c1c(-c3ccc(-c4nccc5c4[nH]c4ccccc45)cc3)nccc12 | 93.8 | 88.4 | 95.6 | 89.4 | 99.1 | 94.8 | 102 | 105 | 105 | 99.1 | 106 | 60.6 | 110 | 115 | 84.2 | 82.7 | 88.2 | 145 | 87.6 | 94.5 | growth at 10 µM [14]: 105%; growth at 10 µM [15]: 97.7%; growth at 10 µM [17]: 84.7%; growth at 10 µM [18]: 105%; growth at 10 µM [20]: 86%; growth at 10 µM [21]: 109%; growth at 10 µM [23]: 109%; growth at 10 µM [25]: 99.3%; growth at 10 µM [26]: 92%; growth at 10 µM [27]: 111%; growth at 10 µM [29]: 104%; growth at 10 µM [31]: 88.9%; growth at 10 µM [32]: 82.5%
c1ccc2[nH]c(-c3ccc(-c4nccc5c4[nH]c4ccccc45)cc3)nc2c1 | – | 17 to 30.4 | – | – | 19 to 76.6 | – | 19 to 74 | 52.2 | – | – | – | – | – | 21 to 45.7 | 47 to 85.7 | 2 to 86.1 | 1 to 16.3 | 58 to 68.7 | – | 60.9 | –
O=Cc1ccc(C2NCCc3c2[nH]c2ccccc32)cc1 (stereo unspecified) | 102 | 91.9 | 94.8 | 88.6 | 107 | 104 | 104 | 101 | 97.4 | 89.4 | 99.3 | 61.9 | 109 | 94.7 | 84.3 | 86.3 | 78.4 | 86.4 | 90.1 | 89 | growth at 10 µM [14]: 101%; growth at 10 µM [15]: 90.5%; growth at 10 µM [17]: 88%; growth at 10 µM [18]: 115%; growth at 10 µM [20]: 114%; growth at 10 µM [21]: 103%; growth at 10 µM [23]: 107%; growth at 10 µM [25]: 89.5%; growth at 10 µM [26]: 105%; growth at 10 µM [27]: 72.1%; growth at 10 µM [29]: 97.6%; growth at 10 µM [31]: 98.9%; growth at 10 µM [32]: 77.8%
Cc1n[nH]c2c1C(c1ccc(C3NCCc4c3[nH]c3ccccc43)cc1)C(C#N)=C(N)O2 (stereo unspecified) | 74.3 | 78.8 | 86 | 80.6 | 91.9 | 97.4 | 105 | 92.9 | 85.7 | 101 | 83.7 | 53.9 | 97.1 | 84.9 | 72.3 | 83 | 76.5 | 67.1 | 81.8 | 87 | growth at 10 µM [14]: 86.9%; growth at 10 µM [15]: 87.7%; growth at 10 µM [17]: 81.8%; growth at 10 µM [18]: 101%; growth at 10 µM [20]: 113%; growth at 10 µM [21]: 92%; growth at 10 µM [23]: 96.3%; growth at 10 µM [25]: 86.7%; growth at 10 µM [26]: 92.4%; growth at 10 µM [27]: 77.6%; growth at 10 µM [29]: 97.7%; growth at 10 µM [31]: 91.7%; growth at 10 µM [32]: 70.4%
Cc1ccc(S(=O)(=O)N2CCc3c([nH]c4ccccc34)C2c2ccc(-c3nc4ccccc4[nH]3)cc2)cc1 (stereo unspecified) | 106 | 92.4 | 81.6 | 85.5 | 86.8 | 99.6 | 102 | 91.3 | 85.8 | 105 | 106 | 66.7 | 86 | 92.8 | 84.2 | 94.3 | 88.3 | 84.6 | 77.1 | 87.7 | growth at 10 µM [14]: 91.9%; growth at 10 µM [15]: 89.2%; growth at 10 µM [17]: 60.3%; growth at 10 µM [18]: 98%; growth at 10 µM [20]: 97.2%; growth at 10 µM [21]: 90.2%; growth at 10 µM [23]: 93.4%; growth at 10 µM [25]: 85.8%; growth at 10 µM [26]: 92.1%; growth at 10 µM [27]: 73.4%; growth at 10 µM [29]: 87.7%; growth at 10 µM [31]: 87.2%; growth at 10 µM [32]: 74%
c1ccc2[nH]c(-c3ccc(C4NCCc5c4[nH]c4ccccc54)cc3)nc2c1 (stereo unspecified) | 88.2 | 96.7 | 96.8 | 98 | 103 | 95.9 | 107 | 98.6 | 97.9 | 97.9 | 103 | 73.5 | 102 | 82.9 | 85 | 89 | 96.1 | 104 | 93.2 | 93.8 | growth at 10 µM [14]: 107%; growth at 10 µM [15]: 93.9%; growth at 10 µM [17]: 83.5%; growth at 10 µM [18]: 94.6%; growth at 10 µM [20]: 119%; growth at 10 µM [21]: 102%; growth at 10 µM [23]: 101%; growth at 10 µM [25]: 96.6%; growth at 10 µM [26]: 98.3%; growth at 10 µM [27]: 92.2%; growth at 10 µM [29]: 92.8%; growth at 10 µM [31]: 94.2%; growth at 10 µM [32]: 89%
c1ccc2c3c([nH]c2c1)C(c1ccc(C2NCCc4c2[nH]c2ccccc42)cc1)NCC3 (racemic) | – | – | – | – | – | – | – | – | – | – | – | – | – | – | – | – | – | – | 57 to 86.9 | – | –
